Data taken from patent US20050244328A1 (priority 2002, published 2005).
“And” between values parts separate entries of the source, which are not always exact repeats. Equal values may be shown once.

Assays:
[1] = test system: Silversides; assay: In-house silverside bioassay of ClO2 treated effluent; type: in vivo, Menidia beryllina; settings: numerous in-house tests, WWTP 1
[2] = test system: M. bahia; assay: Bioassay of ClO2 treated WWTP 2 effluent by Laboratory 4, mysid shrimp; type: in vivo, Mysidopsis bahia; settings: grabs Aug. 28, 2002 10:15, 16:00, 22:00, Aug. 29, 2002 09:30
Description: With the success of the above bioassay series that began on Aug. 20, 2002, it was concluded that a third party test was needed to verify research data. Water grabs from the Anastasia Island Treatment Facility, taken on Aug. 28, 2002, were delivered to Laboratory 4, an independent bioassay laboratory. Additional testing of the water sent to Laboratory 4 labs was also forwarded to another contract lab to document the water quality during the sample periods for the bioassays. It should be noted here that the plant was operating under their normal operating conditions and accepting both landfill leachate as well as septic tank and portable toilet waste. These were however pumped into a storage tank and then trickled into the influent stream at the headworks.
The complete toxicological study as reference is included as attachment at the end of this study.
With the successful bioassay conducted by the Laboratory 4 labs, a second series of water samples was taken for the repeat bioassay. These samples were taken on Sep. 11, 2002 and forwarded to Laboratory 4 labs on Sep. 12, 2002 to conduct the bioassay. The results of this test for both the water quality toxicity and the bioassay are illustrated in the Tables 13, 14 and 15.
The complete toxicological results are provided at the end of this study as attachments.

[3] = test system: Mysid shrimp; assay: In-house mysid shrimp acute bioassay of treated effluent; settings: for surviving Mysid shrimp DAY 1 (bowls A, B) / surviving Mysid shrimp DAY 2 (bowls A, B) / surviving Mysid shrimp DAY 3 (bowls A, B) / surviving Mysid shrimp DAY 4 (bowls A, B): 10 initial per bowl, set up Aug. 20, 2002

Chlorine dioxide [ClO2]
survival of Silversides post CLO2 dosing [1]: always survived
Sample survival % of M. bahia ([2]; 6.25 % Effluent): 100%
Sample survival % of M. bahia ([2]; 12.5 % Effluent): 95% and 100%
Sample survival % of M. bahia ([2]; 25 % Effluent): 100%
Sample survival % of M. bahia ([2]; 50 % Effluent): 95% and 100%
Sample survival % of M. bahia ([2]; 100 % Effluent): 100%
survival rate of Mysid Shrimp 24 HR ([3]; 0.64 PPM DOSE, 25% solution): 100
survival rate of Mysid Shrimp 48 HR ([3]; 0.64 PPM DOSE, 25% solution): 100
survival rate of Mysid Shrimp 72 HR ([3]; 0.64 PPM DOSE, 25% solution): 90
survival rate of Mysid Shrimp 96 HR ([3]; 0.64 PPM DOSE, 25% solution): 90
surviving Mysid shrimp DAY 1 (bowls A, B) ([3]; 0.64 PPM DOSE, 25% solution): 10
surviving Mysid shrimp DAY 2 (bowls A, B) ([3]; 0.64 PPM DOSE, 25% solution): 10
surviving Mysid shrimp DAY 3 (bowls A, B) ([3]; 0.64 PPM DOSE, 25% solution): 9
surviving Mysid shrimp DAY 4 (bowls A, B) ([3]; 0.64 PPM DOSE, 25% solution): 9
survival rate of Mysid Shrimp 24 HR ([3]; 0.64 PPM DOSE, 50% solution): 100
survival rate of Mysid Shrimp 48 HR ([3]; 0.64 PPM DOSE, 50% solution): 100
survival rate of Mysid Shrimp 72 HR ([3]; 0.64 PPM DOSE, 50% solution): 100
survival rate of Mysid Shrimp 96 HR ([3]; 0.64 PPM DOSE, 50% solution): 100
surviving Mysid shrimp DAY 1 (bowls A, B) ([3]; 0.64 PPM DOSE, 50% solution): 10
surviving Mysid shrimp DAY 2 (bowls A, B) ([3]; 0.64 PPM DOSE, 50% solution): 10
surviving Mysid shrimp DAY 3 (bowls A, B) ([3]; 0.64 PPM DOSE, 50% solution): 10
surviving Mysid shrimp DAY 4 (bowls A, B) ([3]; 0.64 PPM DOSE, 50% solution): 10
survival rate of Mysid Shrimp 24 HR ([3]; 0.64 PPM DOSE, 75% solution): 100
survival rate of Mysid Shrimp 48 HR ([3]; 0.64 PPM DOSE, 75% solution): 100
survival rate of Mysid Shrimp 72 HR ([3]; 0.64 PPM DOSE, 75% solution): 95
survival rate of Mysid Shrimp 96 HR ([3]; 0.64 PPM DOSE, 75% solution): 90
surviving Mysid shrimp DAY 1 (bowls A, B) ([3]; 0.64 PPM DOSE, 75% solution): 10
surviving Mysid shrimp DAY 2 (bowls A, B) ([3]; 0.64 PPM DOSE, 75% solution): 10
surviving Mysid shrimp DAY 3 (bowls A, B) ([3]; 0.64 PPM DOSE, 75% solution): 9 and 10
surviving Mysid shrimp DAY 4 (bowls A, B) ([3]; 0.64 PPM DOSE, 75% solution): 8 and 10
survival rate of Mysid Shrimp 24 HR ([3]; 0.64 PPM DOSE, 100% solution): 100
survival rate of Mysid Shrimp 48 HR ([3]; 0.64 PPM DOSE, 100% solution): 100
survival rate of Mysid Shrimp 72 HR ([3]; 0.64 PPM DOSE, 100% solution): 85
survival rate of Mysid Shrimp 96 HR ([3]; 0.64 PPM DOSE, 100% solution): 70
surviving Mysid shrimp DAY 1 (bowls A, B) ([3]; 0.64 PPM DOSE, 100% solution): 10
surviving Mysid shrimp DAY 2 (bowls A, B) ([3]; 0.64 PPM DOSE, 100% solution): 10
surviving Mysid shrimp DAY 3 (bowls A, B) ([3]; 0.64 PPM DOSE, 100% solution): 7 and 10
surviving Mysid shrimp DAY 4 (bowls A, B) ([3]; 0.64 PPM DOSE, 100% solution): 5 and 9
survival rate of Mysid Shrimp 24 HR ([3]; 1.05 PPM DOSE, 25% solution): 100
survival rate of Mysid Shrimp 48 HR ([3]; 1.05 PPM DOSE, 25% solution): 100
survival rate of Mysid Shrimp 72 HR ([3]; 1.05 PPM DOSE, 25% solution): 100
survival rate of Mysid Shrimp 96 HR ([3]; 1.05 PPM DOSE, 25% solution): 100
surviving Mysid shrimp DAY 1 (bowls A, B) ([3]; 1.05 PPM DOSE, 25% solution): 10
surviving Mysid shrimp DAY 2 (bowls A, B) ([3]; 1.05 PPM DOSE, 25% solution): 10
surviving Mysid shrimp DAY 3 (bowls A, B) ([3]; 1.05 PPM DOSE, 25% solution): 10
surviving Mysid shrimp DAY 4 (bowls A, B) ([3]; 1.05 PPM DOSE, 25% solution): 10
survival rate of Mysid Shrimp 24 HR ([3]; 1.05 PPM DOSE, 50% solution): 100
survival rate of Mysid Shrimp 48 HR ([3]; 1.05 PPM DOSE, 50% solution): 100
survival rate of Mysid Shrimp 72 HR ([3]; 1.05 PPM DOSE, 50% solution): 95
survival rate of Mysid Shrimp 96 HR ([3]; 1.05 PPM DOSE, 50% solution): 95
surviving Mysid shrimp DAY 1 (bowls A, B) ([3]; 1.05 PPM DOSE, 50% solution): 10
surviving Mysid shrimp DAY 2 (bowls A, B) ([3]; 1.05 PPM DOSE, 50% solution): 10
surviving Mysid shrimp DAY 3 (bowls A, B) ([3]; 1.05 PPM DOSE, 50% solution): 10 and 9
surviving Mysid shrimp DAY 4 (bowls A, B) ([3]; 1.05 PPM DOSE, 50% solution): 9 and 10
survival rate of Mysid Shrimp 24 HR ([3]; 1.05 PPM DOSE, 75% solution): 100
survival rate of Mysid Shrimp 48 HR ([3]; 1.05 PPM DOSE, 75% solution): 100
survival rate of Mysid Shrimp 72 HR ([3]; 1.05 PPM DOSE, 75% solution): 100
survival rate of Mysid Shrimp 96 HR ([3]; 1.05 PPM DOSE, 75% solution): 95
surviving Mysid shrimp DAY 1 (bowls A, B) ([3]; 1.05 PPM DOSE, 75% solution): 10
surviving Mysid shrimp DAY 2 (bowls A, B) ([3]; 1.05 PPM DOSE, 75% solution): 10
surviving Mysid shrimp DAY 3 (bowls A, B) ([3]; 1.05 PPM DOSE, 75% solution): 10
surviving Mysid shrimp DAY 4 (bowls A, B) ([3]; 1.05 PPM DOSE, 75% solution): 10 and 9
survival rate of Mysid Shrimp 24 HR ([3]; 1.05 PPM DOSE, 100% solution): 100
survival rate of Mysid Shrimp 48 HR ([3]; 1.05 PPM DOSE, 100% solution): 100
survival rate of Mysid Shrimp 72 HR ([3]; 1.05 PPM DOSE, 100% solution): 90
survival rate of Mysid Shrimp 96 HR ([3]; 1.05 PPM DOSE, 100% solution): 70
surviving Mysid shrimp DAY 1 (bowls A, B) ([3]; 1.05 PPM DOSE, 100% solution): 10
surviving Mysid shrimp DAY 2 (bowls A, B) ([3]; 1.05 PPM DOSE, 100% solution): 10 and 9
surviving Mysid shrimp DAY 3 (bowls A, B) ([3]; 1.05 PPM DOSE, 100% solution): 8 and 10
surviving Mysid shrimp DAY 4 (bowls A, B) ([3]; 1.05 PPM DOSE, 100% solution): 6 and 8
No. of surviving shrimp DAY 2 ([3]; 100% effluent, 10 shrimp per bowl, set up Aug. 13, 2002, ClO2 samples 14:00 and 15:00, bowls A, B, landfill leachate slug in plant): 10 and 9 and 6
AVG (% survival of bowls A and B) ([3]; 100% effluent, set up Aug. 13, 2002, ClO2 samples 14:00 and 15:00): 40%
mysid shrimp bioassay outcome ([3]; side stream, after adjustments to the chlorine dioxide generator (weaker hypochlorite solution)): successful (acceptable end-point survival)
